Measurements as given in PMC11882969 (Nature Communications, 2025).
Several values for one entry are separate records, joined by “and”; a condition that tells them apart may be missing. Equal entries are not always repeated. Where two headings read alike, the source gives them in different places.

Target: hCB2 (Homo sapiens, UniProt P34972)
Assay: bioSensAll ebBRET signaling profiling, hCB2
Type: cell-based
Set-up: host or cells: HEK293SL cells, transient PEI transfection
Conditions: for RE, relative efficacy: vs CP-55,940; for G13 hCB2 / G15 hCB2 / Gq hCB2 / Gs hCB2: raw signal; for EC50: read-out: EC50 [95% CI]; for Emax: normalized to CP-55,940
[1] = Log [Compound] (M) not printed (line after -13)

Chain of hCB2 (P34972 whole entry): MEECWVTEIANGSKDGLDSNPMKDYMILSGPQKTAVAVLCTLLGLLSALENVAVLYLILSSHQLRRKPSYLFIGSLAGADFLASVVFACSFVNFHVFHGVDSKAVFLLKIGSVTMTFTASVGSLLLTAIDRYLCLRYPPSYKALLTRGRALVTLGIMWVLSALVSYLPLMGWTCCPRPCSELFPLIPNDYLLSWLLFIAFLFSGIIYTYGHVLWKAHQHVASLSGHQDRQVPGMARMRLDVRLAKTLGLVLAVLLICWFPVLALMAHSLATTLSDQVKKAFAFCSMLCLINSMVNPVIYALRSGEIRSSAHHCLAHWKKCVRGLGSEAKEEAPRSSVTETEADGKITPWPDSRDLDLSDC

## COC(=O)C(C)(NC(=O)c1cc(C)n(-c2cccc(C(F)(F)F)c2)n1)c1cccs1 (stereo not drawn) [‘4042]
Log [Compound] (M) -4.22186
  Barr2+GRK2 hCB2: 36.6847 and 35.0372
  Gi1 hCB2: 75.671 and 56.3726
  Gi2 hCB2: 69.4439
  GoB hCB2: 52.0294 and 57.6529
  Gz hCB2: 65.903
  G13 hCB2: 669
  G15 hCB2: 923
  Gq hCB2: 1840
  Gs hCB2: 9076
Log [Compound] (M) -4.63927
  Barr2+GRK2 hCB2: 30.1112 and 31.9388
  Gi1 hCB2: 84.2769 and 74.9725
  Gi2 hCB2: 71.4813
  GoB hCB2: 57.2898 and 66.4321
  Gz hCB2: 53.7774
  G13 hCB2: 511
  G15 hCB2: 896
  Gq hCB2: 1838
  Gs hCB2: 9146
Log [Compound] (M) -5.05788
  Barr2+GRK2 hCB2: 34.1076 and 21.894
  Gi1 hCB2: 83.7031 and 72.7366
  Gi2 hCB2: 65.5506
  GoB hCB2: 61.864 and 59.6527
  Gz hCB2: 52.6347
  G13 hCB2: 372
  G15 hCB2: 871
  Gq hCB2: 1851
  Gs hCB2: 9765
Log [Compound] (M) -5.47381
  Barr2+GRK2 hCB2: 32.3148 and 21.944
  Gi1 hCB2: 87.9518 and 88.1124
  Gi2 hCB2: 70.9363
  GoB hCB2: 59.0585 and 62.0173
  Gz hCB2: 46.8061
  G13 hCB2: 454
  G15 hCB2: 873
  Gq hCB2: 1786
  Gs hCB2: 9415
Log [Compound] (M) -5.89285
  Barr2+GRK2 hCB2: 35.0413 and 26.4416
  Gi1 hCB2: 81.7804 and 90.251
  Gi2 hCB2: 70.7805
  GoB hCB2: 65.2185 and 62.9481
  Gz hCB2: 53.1772
  G13 hCB2: 417
  G15 hCB2: 919
  Gq hCB2: 1814
  Gs hCB2: 9299
Log [Compound] (M) -6.31878
  Barr2+GRK2 hCB2: 26.1148 and 22.8935
  Gi1 hCB2: 87.5021 and 87.0754
  Gi2 hCB2: 73.3371
  GoB hCB2: 60.7357 and 59.0239
  Gz hCB2: 50.6781
  G13 hCB2: 379
  G15 hCB2: 911
  Gq hCB2: 1840
  Gs hCB2: 9425
Log [Compound] (M) -6.72585
  Barr2+GRK2 hCB2: 32.0907 and 32.9383
  Gi1 hCB2: 83.1759 and 83.592
  Gi2 hCB2: 72.2081
  GoB hCB2: 57.8234 and 61.5268
  Gz hCB2: 54.4186
  G13 hCB2: 366
  G15 hCB2: 869
  Gq hCB2: 1780
  Gs hCB2: 9320
Log [Compound] (M) -7.14267
  Barr2+GRK2 hCB2: 30.5594 and 25.1923
  Gi1 hCB2: 86.1686 and 79.3795
  Gi2 hCB2: 59.0489
  GoB hCB2: 60.3698 and 62.0676
  Gz hCB2: 81.8754 and 46.0416
  G13 hCB2: 378
  G15 hCB2: 865
  Gq hCB2: 1798
  Gs hCB2: 9628
Log [Compound] (M) -7.55284
  Barr2+GRK2 hCB2: 24.7329 and 21.1444
  Gi1 hCB2: 76.7565 and 80.3516
  Gi2 hCB2: 59.4123
  GoB hCB2: 49.2391 and 57.2756
  Gz hCB2: 76.5196 and 38.421
  G13 hCB2: 351
  G15 hCB2: 908
  Gq hCB2: 1838
  Gs hCB2: 9429
Log [Compound] (M) -8
  Barr2+GRK2 hCB2: 20.8112 and 19.8451
  Gi1 hCB2: 58.7695 and 64.9921
  Gi2 hCB2: 62.9552
  GoB hCB2: 43.3382 and 49.9051
  G13 hCB2: 336
  G15 hCB2: 870
  Gq hCB2: 1691
  Gs hCB2: 9233
Log [Compound] (M) -8.22186
  Barr2+GRK2 hCB2: 15.2835 and 10.4
  Gi1 hCB2: 52.319 and 51.5606
  Gi2 hCB2: 51.7297
  GoB hCB2: 36.4463 and 41.3775
  Gz hCB2: 67.5634 and 41.7257
  G13 hCB2: 337
  G15 hCB2: 953
  Gq hCB2: 1914
  Gs hCB2: 10090
Log [Compound] (M) -8.39794
  Barr2+GRK2 hCB2: 10.0546 and 6.052
  Gi1 hCB2: 41.3253 and 50.1024
  Gi2 hCB2: 43.6058
  GoB hCB2: 31.1707 and 34.2586
  G13 hCB2: 386
  G15 hCB2: 901
  Gq hCB2: 1867
  Gs hCB2: 9624
Log [Compound] (M) -8.68787
  Barr2+GRK2 hCB2: 5.6847 and 8.001
  Gi1 hCB2: 42.5968 and 33.949
  Gi2 hCB2: 35.8583
  G13 hCB2: 351
  G15 hCB2: 876
  Gq hCB2: 1937
  Gs hCB2: 9194
Log [Compound] (M) -9.15521
  Gi2 hCB2: 25.8008
  G13 hCB2: 367
  G15 hCB2: 910
  Gq hCB2: 1811
  Gs hCB2: 9196
Log [Compound] (M) -9.61989
  Gi2 hCB2: -4.618
  G13 hCB2: 345
  G15 hCB2: 880
  Gq hCB2: 1785
  Gs hCB2: 9153
Log [Compound] (M) -10.0969
  Gi2 hCB2: -5.163
  G13 hCB2: 341
  G15 hCB2: 856
  Gq hCB2: 1790
  Gs hCB2: 9401
Log [Compound] (M) -10.5529
  Gi2 hCB2: -5.566
  G13 hCB2: 309
  G15 hCB2: 917
  Gq hCB2: 1878
  Gs hCB2: 9283
Log [Compound] (M) -11.0177
  Gi2 hCB2: -11.8727
  G13 hCB2: 377
  G15 hCB2: 837
  Gq hCB2: 1802
  Gs hCB2: 9354
Log [Compound] (M) -11.4949
  Gi2 hCB2: -13.975
  G13 hCB2: 335
  G15 hCB2: 822
  Gq hCB2: 1866
  Gs hCB2: 8977
Log [Compound] (M) -11.9208
  Gi2 hCB2: -11.7429
  G13 hCB2: 361
  G15 hCB2: 904
  Gq hCB2: 1780
  Gs hCB2: 8976
Log [Compound] (M) -12.3979
  Gi2 hCB2: -12.3529
  G13 hCB2: 355
  G15 hCB2: 851
  Gq hCB2: 1758
  Gs hCB2: 8977
Log [Compound] (M) -12.8861
  Gi2 hCB2: -13.7415
  G13 hCB2: 299
  G15 hCB2: 809
  Gq hCB2: 1793
  Gs hCB2: 9246
Log [Compound] (M) -13
  Gi2 hCB2: -11.7689
  G13 hCB2: 267 and 381
  G15 hCB2: 851 and 879
  Gq hCB2: 1807 and 1732
  Gs hCB2: 9386 and 9439
[1]
  Barr2+GRK2 hCB2: 1.105
  Gi1 hCB2: -2.635
  GoB hCB2: -0.7449
  Gz hCB2: 1.526
hCB2 Barr2 + GRK2
  pEC50 [95% CI]: 8.26 [8.1 – 8.5]
  EC50: 5.5 nM
hCB2 Gi1
  pEC50 [95% CI]: 8.58 [8.5 – 8.7]
  RE, relative efficacy: 0.63
  EC50: 2.7 nM
hCB2 Gi2
  pEC50 [95% CI]: 8.90 [8.8 – 9.0]
  RE, relative efficacy: 0.59
  EC50: 1.3 nM
hCB2 GoB
  pEC50 [95% CI]: 8.60 [8.5 – 8.7]
  RE, relative efficacy: 0.47
  EC50: 2.5 nM
hCB2 Gz
  pEC50 [95% CI]: 8.87 [8.5 – 9.3]
  RE, relative efficacy: 0.38
hCB2 ßarr2+GRK2
  RE, relative efficacy: 0.82
read-out: Emax [95% CI], hCB2 Barr2 + GRK2
  Emax: 33%
read-out: Emax [95% CI], hCB2 Gi1
  Emax: 82%
read-out: Emax [95% CI], hCB2 Gi2
  Emax: 70%
read-out: Emax [95% CI], hCB2 GoB
  Emax: 61%
read-out: Emax [95% CI], hCB2 Gz
  Emax: 56%
